Values quoted from earlier work as cited in patent US20060013862A1, “Onychomycosis: a new process for cure” (priority 2004, published 2006).

Tested on: onychomycosis
[1] = itraconazole vs terbinafine-treated patients

In the case of `CN(C/C=C/C#CC(C)(C)C)Cc1cccc2ccccc12` [terbinafine], the Mycological relapse rate [1] is given as 23%, the clinical relapse rate [1] is given as 21% and the “Mycological cure without second intervention treatment” value (share of treated subjects (34 of 74 terbinafine)) is given as 46%.
